1 compound from patent US20160158415A1, “METHOD FOR DETOXIFYING A BIOLOGICAL TISSUE” (Sorin Group Italia S.r.l., priority 2010, published 2016) can be followed below.

This assay can be described thus: Fuchsine staining of free aldehyde groups on fixed, detoxified tissue (observed colour). Further details: species or system bovine. The conditions noted are these: FIG. 1 samples; detoxified at room temperature about 24 hours; homocysteic acid 1.00% w/v or taurine 0.70% w/v in phosphate buffer pH 7; weaker staining = fewer free aldehyde groups.

Entries after “also recorded” stand apart in the source; their conditions may differ.

Description: The efficacy of the method described herein, and therefore the occurrence of the reaction between the amino groups of the detoxifying molecule and the aldehyde groups present on the fixed tissue, is evaluated by staining of the aldehyde groups remaining free. The greater the staining intensity, the more numerous are the free aldehyde groups and, on the contrary, the weaker (or absent) the staining, the less numerous (or absent) are the free aldehyde groups present on the detoxified tissue.
The detoxification step was conducted at room temperature (20° C.), 40° C. and 50° C., for a period of time of 24 hours, using about 200 ml of solution for each tissue.
a second control sample (FIG. 1B) fixed with glutaraldehyde and detoxified with a solution containing homocysteic acid at a concentration (w/v) of 1.00% in phosphate buffer pH 7;
The tissue samples were immersed in the detoxifying solutions for about 24 hours at room temperature with gentle agitation.
The samples were immersed in the detoxifying solution for about 24 hours with gentle agitation both at room temperature and at 40° C.; the fourth sample detoxified at 50° C. was maintained immersed for 7-8 hours with gentle agitation.
Tissue staining to detect free aldehyde groups uses an acidic solution of rosaniline hydrochloride (fuchsine). […]

Turning to `N[C@@H](CCS(=O)(=O)O)C(=O)O` [homocysteic acid], the Staining observed entry is “less than that of the control sample; also recorded: Violet”.
